Publication PMC5225203, “Multiparameter toxicity assessment of novel DOPO-derived organophosphorus flame retardants” (Archives of Toxicology, 2016)

How the values were obtained:
Daphnia magna = test: Acute daphnia immobilization test (OECD guideline 202); type: in vivo; conditions: for daphnia viability: at concentrations ≤400 µM (abstract); for Immobile Daphnia after 48 h: 20 individuals
Description: Loading Num ber of I m m obile rate Replicat e individuals Da phnia
(mg/l) per test af t er 48 h
Suppl. Fig. 5. Freshwater microcrustacean toxicity test. Acute toxicity was determined in Daphnia magna according to the standardized OECD guidelines number 202 test, performed by BMG Engineering Ltd., Schlieren, Switzerland. Daphnia were cultured in aerated Elendt M4 medium at a constant temperature of 21°C under a 16:8 light/dark photoperiod. The water soluble fraction of the indicated concentrations of flame retardants were added for 48 h.
Mortality was assessed by the detection of movement analysis. Immobile Daphnia were defined as those animals displaying no movement within a 15 s period following shaking of […]

[1] = Penetration into porcine skin by confocal Raman spectroscopy; type: in vitro ADME; conditions: 1 h; for maximal penetration depth: porcine skin surface, 400 µM; for penetration/accumulation into porcine ear skin: topical 400 µM, confocal Raman
Description: The vertical distribution of topically applied DOPO derivatives and reference compounds was investigated on segments of porcine ears from freshly slaughtered animals. The skin was separated from the cartilage, depilated, and placed into Franz diffusion cells (1 cm^2). The acceptor solution was PBS buffer containing 2 % IGEPAL® CA-630 (Sigma-Aldrich). The test compounds were dispersed at a concentration of 400 µM (2 % in the case of caffeine) in PBS buffer containing 2 % IGEPAL® CA-630, after which 300 µL of this mixture (or a blank solution) was topically applied onto the porcine skin and allowed to penetrate for 60 min. Next, the skin was removed from the Franz cells, gently washed with PBS, and placed onto the optical window of an inverse confocal Raman microscope (Model 3510 SCA, River Diagnostics) equipped with a 60 × oil-immersion objective. The 785-nm excitation laser was used to acquire spectra in the fingerprint region (400–1800 cm^−1, 5 s integration time) starting from the surface of the skin and extending to a depth of 60 µm (2 µm step size). The acquisition was repeated for at least five positions. The averaged concentration profiles of the flame retardants and reference compounds were extracted by fitting (unrestricted classical least squares, third-order polynomial baseline) the Raman spectra with the reference spectra of keratin (as representative of all proteins), water, ceramide 3, cholesterol (as representatives of all lipids), natural moisturizing factor (NMF; fixed composition), lactate, urea, and solid test compounds using Skin Tools 2.0 software (River Diagnostics). The concentrations of the test substances are given as the molar fraction relative to keratin rather than correcting for the Raman signal attenuation using mathematical models (Franzen et al. [2013]). The response factors of the test compounds were determined against BSA solutions assuming similar Raman cross sections for keratin and BSA as described in the literature (Caspers et al. [2001]; Fleischli et al. [2013], [2015]). Because EDA-DOPO, ETA-DOPO, and EG-DOPO were only partially soluble in chloroform, their spectra were calibrated against DOPO with the assumption of the same Raman cross section for the biphenyl group. Because of the nature of the unrestricted fit, negative fitting coefficients can be obtained and the values must be compared to those of the blank sample. The fitting coefficients of the blank, untreated skin were also used to estimate the level of detection. The depth resolution of the confocal microscope was determined to be 8 µm at FWHM, leaving an uncertainty of approximately 4 µm in differentiating between truly permeated compounds and compounds sitting at the surface of the skin.

[2] = test system: rat neuroblastoma B35 cells; conditions: B35, 24 h, maximal concentration 100 µM; ref Hendriks et al. [2014]; cited from earlier work
[3] = loading rate 10 mg/l, replicate A
[4] = loading rate 10 mg/l, replicate B
[5] = loading rate 100 mg/l, replicate A
[6] = loading rate 100 mg/l, replicate B
[7] = loading rate 1000 mg/l, replicate A
[8] = loading rate 1000 mg/l, replicate B

SMILES | daphnia viability (Daphnia magna) | Immobile Daphnia after 48 h (Daphnia magna; [3]) [%] | Immobile Daphnia after 48 h (Daphnia magna; [4]) [%] | Immobile Daphnia after 48 h (Daphnia magna; [5]) [%] | Immobile Daphnia after 48 h (Daphnia magna; [6]) [%] | Immobile Daphnia after 48 h (Daphnia magna; [7]) [%] | Immobile Daphnia after 48 h (Daphnia magna; [8]) [%] | maximal penetration depth [1] | penetration/accumulation into porcine ear skin [1] | alterations in cell viability, generation of reactive oxygen species, or intracellular Ca2+ levels [2]
O=P1(NCCNP2(=O)Oc3ccccc3-c3ccccc32)Oc2ccccc2-c2ccccc21 (stereo not shown) [EDA-DOPO, 6,6′-(ethane-1,2-diylbis(azanediyl))bis(6H-dibenzo[c,e][1,2]oxaphosphinine-6-oxide)] | nor did they affect algae growth or daphnia viability | 0 | 0 | 0 | 0 | 5 | 10 |  |  | 
O=P1(OCCOP2(=O)Oc3ccccc3-c3ccccc32)Oc2ccccc2-c2ccccc21 (stereo not shown) [EG-DOPO, 6,6′-(ethane-1,2-diylbis(oxy))bis(6H-dibenzo[c,e][1,2]oxaphosphinine-6-oxide)] |  | 0 | 0 | 10 | 0 | 5 | 10 |  |  | 
O=P1(NCCOP2(=O)Oc3ccccc3-c3ccccc32)Oc2ccccc2-c2ccccc21 (stereo not shown) [ETA-DOPO, 6-(2-((6-oxido-6H-dibenzo[c,e][1,2]oxaphosphinin-6-yl)amino)ethoxy)-6H-dibenzo[c,e][1,2]oxaphosphinine 6-oxide] |  | 5 | 0 | 0 | 0 | 5 | 0 | less than 8 µm | significant accumulation | 
Brc1ccc(Oc2cc(Br)c(Br)cc2Br)c(Br)c1 [PBDE-99, reference compound] |  |  |  |  |  |  |  | less than 8 µm | moderate accumulation | 
O=[PH]1Oc2ccccc2-c2ccccc21 (stereo not shown) [DOPO, 9,10-dihydro-9-oxa-10-phosphaphenanthrene-10-oxide] | nor did they affect algae growth or daphnia viability |  |  |  |  |  |  |  |  | no signs of alterations
